Laboratory results from the kinase profiling compilation of Christmann-Franck et al. (2016).

Experiments:
PI4KB (human) = PI4KB (human) (UniProt Q9UBF8); experiment: SelectScreen, TR FRET
PIK3C3 (human) = PIK3C3 (human) (UniProt Q8NEB9); experiment: SelectScreen, TR FRET
MTOR (human) = MTOR (human) (UniProt P42345); experiment: SelectScreen, TR FRET
PRKG2 (human) = PRKG2 (human) (UniProt Q13237); experiment: KINOMEscan competition binding; conditions: compound 10.0 µM
MAP3K5 (human) = MAP3K5 (human) (UniProt Q99683); experiment: KINOMEscan competition binding; conditions: compound 10.0 µM
[1] = system: MET (human), P08581 [Y1235D]; experiment: KINOMEscan competition binding; conditions: compound 10.0 µM
STK35 (human) = STK35 (human) (UniProt Q8TDR2); experiment: KINOMEscan competition binding; conditions: compound 10.0 µM
CDK11B (human) = CDK11B (human) (UniProt P21127); experiment: KINOMEscan competition binding; conditions: compound 10.0 µM
STK32A (human) = STK32A (human) (UniProt Q8WU08); experiment: KINOMEscan competition binding; conditions: compound 10.0 µM
CDKL2 (human) = CDKL2 (human) (UniProt Q92772); experiment: KINOMEscan competition binding; conditions: compound 10.0 µM
HIPK3 (human) = HIPK3 (human) (UniProt Q9H422); experiment: KINOMEscan competition binding; conditions: compound 10.0 µM
MAPK9 (human) = MAPK9 (human) (UniProt P45984); experiment: KINOMEscan competition binding; conditions: compound 10.0 µM
CDK9 (human) = CDK9 (human) (UniProt P50750); experiment: KINOMEscan competition binding; conditions: compound 10.0 µM
RPS6KB1 (human) = RPS6KB1 (human) (UniProt P23443); experiment: KINOMEscan competition binding; conditions: compound 10.0 µM
MET (human) = MET (human) (UniProt P08581); experiment: KINOMEscan competition binding; conditions: compound 10.0 µM
PLK3 (human) = PLK3 (human) (UniProt Q9H4B4); experiment: KINOMEscan competition binding; conditions: compound 10.0 µM
CDC42BPA (human) = CDC42BPA (human) (UniProt Q5VT25); experiment: KINOMEscan competition binding; conditions: compound 10.0 µM
MAPK1 (human) = MAPK1 (human) (UniProt P28482); experiment: KINOMEscan competition binding; conditions: compound 10.0 µM
CAMK2D (human) = CAMK2D (human) (UniProt Q13557); experiment: KINOMEscan competition binding; conditions: compound 10.0 µM
DYRK1B (human) = DYRK1B (human) (UniProt Q9Y463); experiment: KINOMEscan competition binding; conditions: compound 10.0 µM
IRAK1 (human) = IRAK1 (human) (UniProt P51617); experiment: KINOMEscan competition binding; conditions: compound 10.0 µM
RPS6KA4 KD1 (human) = RPS6KA4 KD1 (human) (UniProt O75676); experiment: KINOMEscan competition binding; conditions: compound 10.0 µM
MAP3K13 (human) = MAP3K13 (human) (UniProt O43283); experiment: KINOMEscan competition binding; conditions: compound 10.0 µM
STK33 (human) = STK33 (human) (UniProt Q9BYT3); experiment: KINOMEscan competition binding; conditions: compound 10.0 µM
MAP3K1 (human) = MAP3K1 (human) (UniProt Q13233); experiment: KINOMEscan competition binding; conditions: compound 10.0 µM
MAPK3 (human) = MAPK3 (human) (UniProt P27361); experiment: KINOMEscan competition binding; conditions: compound 10.0 µM
[2] = system: EGFR (human), P00533 [752-759 del]; experiment: KINOMEscan competition binding; conditions: compound 10.0 µM
[3] = system: KIT (human), P10721 [V559D/V654A]; experiment: KINOMEscan competition binding; conditions: compound 10.0 µM
PAK2 (human) = PAK2 (human) (UniProt Q13177); experiment: KINOMEscan competition binding; conditions: compound 10.0 µM
AURKC (human) = AURKC (human) (UniProt Q9UQB9); experiment: KINOMEscan competition binding; conditions: compound 10.0 µM
PHKG2 (human) = PHKG2 (human) (UniProt P15735); experiment: KINOMEscan competition binding; conditions: compound 10.0 µM
VRK2 (human) = VRK2 (human) (UniProt Q86Y07); experiment: KINOMEscan competition binding; conditions: compound 10.0 µM
CSNK1G3 (human) = CSNK1G3 (human) (UniProt Q9Y6M4); experiment: KINOMEscan competition binding; conditions: compound 10.0 µM
PLK1 (human) = PLK1 (human) (UniProt P53350); experiment: KINOMEscan competition binding; conditions: compound 10.0 µM
GAK (human) = GAK (human) (UniProt O14976); experiment: KINOMEscan competition binding; conditions: compound 10.0 µM
RPS6KA5 KD1 (human) = RPS6KA5 KD1 (human) (UniProt O75582); experiment: KINOMEscan competition binding; conditions: compound 10.0 µM
[4] = system: EIF2AK4 KD2 (human), Q9P2K8 [S808G]; experiment: KINOMEscan competition binding; conditions: compound 10.0 µM
MAPK11 (human) = MAPK11 (human) (UniProt Q15759); experiment: KINOMEscan competition binding; conditions: compound 10.0 µM
RPS6KA5 KD2 (human) = RPS6KA5 KD2 (human) (UniProt O75582); experiment: KINOMEscan competition binding; conditions: compound 10.0 µM
BLK (human) = BLK (human) (UniProt P51451); experiment: KINOMEscan competition binding; conditions: compound 10.0 µM
PRKCQ (human) = PRKCQ (human) (UniProt Q04759); experiment: KINOMEscan competition binding; conditions: compound 10.0 µM
[5] = system: EGFR (human), P00533 [746-750 del]; experiment: KINOMEscan competition binding; conditions: compound 10.0 µM

Chain of CAMK2D (human) (Q13557 whole entry, looked up): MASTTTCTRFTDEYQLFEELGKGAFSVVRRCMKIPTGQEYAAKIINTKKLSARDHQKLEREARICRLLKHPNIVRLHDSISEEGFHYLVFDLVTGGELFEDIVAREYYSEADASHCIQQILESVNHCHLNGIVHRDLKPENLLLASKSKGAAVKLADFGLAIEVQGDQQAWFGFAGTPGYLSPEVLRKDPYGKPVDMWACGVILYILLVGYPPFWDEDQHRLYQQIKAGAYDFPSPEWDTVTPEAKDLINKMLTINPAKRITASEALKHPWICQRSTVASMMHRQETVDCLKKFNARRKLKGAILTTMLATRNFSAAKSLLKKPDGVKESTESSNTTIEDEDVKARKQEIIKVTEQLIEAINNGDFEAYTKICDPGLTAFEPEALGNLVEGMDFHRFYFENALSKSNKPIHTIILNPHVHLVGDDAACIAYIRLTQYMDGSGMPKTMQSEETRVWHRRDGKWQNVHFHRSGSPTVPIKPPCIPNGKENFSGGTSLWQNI
Chain of STK35 (human) (Q8TDR2 whole entry, looked up): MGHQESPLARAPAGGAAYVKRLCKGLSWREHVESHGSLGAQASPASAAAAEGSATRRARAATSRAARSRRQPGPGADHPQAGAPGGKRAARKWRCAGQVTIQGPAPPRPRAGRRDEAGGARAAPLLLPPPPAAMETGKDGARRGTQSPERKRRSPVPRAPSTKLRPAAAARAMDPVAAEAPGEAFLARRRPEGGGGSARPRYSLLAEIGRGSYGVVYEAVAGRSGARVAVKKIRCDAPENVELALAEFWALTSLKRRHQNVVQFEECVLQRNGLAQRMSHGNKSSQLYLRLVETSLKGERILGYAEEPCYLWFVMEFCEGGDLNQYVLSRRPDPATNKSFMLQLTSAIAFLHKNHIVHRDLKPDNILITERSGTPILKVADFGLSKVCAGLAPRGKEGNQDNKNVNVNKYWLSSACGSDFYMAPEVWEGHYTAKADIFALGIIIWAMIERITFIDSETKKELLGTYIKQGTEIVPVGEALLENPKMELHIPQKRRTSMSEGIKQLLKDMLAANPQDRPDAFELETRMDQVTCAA
Chain of MAP3K5 (human) (Q99683 whole entry, looked up): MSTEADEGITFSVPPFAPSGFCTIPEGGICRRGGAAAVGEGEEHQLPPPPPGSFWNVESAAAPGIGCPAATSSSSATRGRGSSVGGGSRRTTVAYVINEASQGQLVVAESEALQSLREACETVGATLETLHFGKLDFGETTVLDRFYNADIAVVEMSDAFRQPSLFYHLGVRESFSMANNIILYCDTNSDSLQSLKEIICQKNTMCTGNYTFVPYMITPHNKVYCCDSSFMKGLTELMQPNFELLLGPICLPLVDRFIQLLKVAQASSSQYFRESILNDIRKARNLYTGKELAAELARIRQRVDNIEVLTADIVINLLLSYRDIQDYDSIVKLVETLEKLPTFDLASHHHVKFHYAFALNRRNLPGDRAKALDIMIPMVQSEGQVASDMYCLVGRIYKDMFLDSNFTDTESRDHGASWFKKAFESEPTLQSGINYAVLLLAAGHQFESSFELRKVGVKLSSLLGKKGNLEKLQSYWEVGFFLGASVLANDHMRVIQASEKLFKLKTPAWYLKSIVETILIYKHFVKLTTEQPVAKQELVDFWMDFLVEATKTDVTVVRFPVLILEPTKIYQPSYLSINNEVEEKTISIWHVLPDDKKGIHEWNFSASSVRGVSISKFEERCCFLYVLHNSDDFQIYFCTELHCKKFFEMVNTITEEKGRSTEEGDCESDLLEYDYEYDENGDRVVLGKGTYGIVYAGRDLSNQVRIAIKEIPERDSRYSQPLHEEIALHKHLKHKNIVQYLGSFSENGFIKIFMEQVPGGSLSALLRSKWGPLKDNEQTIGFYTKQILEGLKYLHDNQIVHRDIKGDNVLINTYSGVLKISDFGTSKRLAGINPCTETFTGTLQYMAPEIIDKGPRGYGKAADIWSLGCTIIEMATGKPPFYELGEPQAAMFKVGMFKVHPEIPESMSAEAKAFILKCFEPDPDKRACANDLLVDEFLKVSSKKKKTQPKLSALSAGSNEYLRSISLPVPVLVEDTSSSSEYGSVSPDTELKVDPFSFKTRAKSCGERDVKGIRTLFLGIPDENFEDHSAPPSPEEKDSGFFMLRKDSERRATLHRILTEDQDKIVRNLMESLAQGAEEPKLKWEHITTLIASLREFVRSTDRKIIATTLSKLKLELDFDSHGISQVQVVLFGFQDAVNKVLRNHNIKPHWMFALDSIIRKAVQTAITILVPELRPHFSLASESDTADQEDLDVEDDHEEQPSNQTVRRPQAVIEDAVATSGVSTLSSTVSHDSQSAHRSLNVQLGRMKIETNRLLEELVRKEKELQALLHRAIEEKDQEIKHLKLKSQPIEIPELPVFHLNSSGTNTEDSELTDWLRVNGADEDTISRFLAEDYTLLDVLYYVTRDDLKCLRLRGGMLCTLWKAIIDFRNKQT
Chain of MAPK3 (human) (P27361 whole entry, looked up): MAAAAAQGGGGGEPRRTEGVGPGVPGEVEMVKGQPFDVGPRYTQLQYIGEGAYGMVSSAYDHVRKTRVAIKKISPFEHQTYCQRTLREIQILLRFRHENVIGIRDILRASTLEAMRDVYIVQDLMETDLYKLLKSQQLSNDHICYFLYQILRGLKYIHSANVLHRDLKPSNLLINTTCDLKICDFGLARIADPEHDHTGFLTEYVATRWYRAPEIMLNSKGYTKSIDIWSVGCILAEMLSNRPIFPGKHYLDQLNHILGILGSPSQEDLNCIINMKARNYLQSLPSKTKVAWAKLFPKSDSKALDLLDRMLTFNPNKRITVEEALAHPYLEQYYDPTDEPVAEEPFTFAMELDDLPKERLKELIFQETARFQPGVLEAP
Chain of CDK9 (human) (P50750 whole entry, looked up): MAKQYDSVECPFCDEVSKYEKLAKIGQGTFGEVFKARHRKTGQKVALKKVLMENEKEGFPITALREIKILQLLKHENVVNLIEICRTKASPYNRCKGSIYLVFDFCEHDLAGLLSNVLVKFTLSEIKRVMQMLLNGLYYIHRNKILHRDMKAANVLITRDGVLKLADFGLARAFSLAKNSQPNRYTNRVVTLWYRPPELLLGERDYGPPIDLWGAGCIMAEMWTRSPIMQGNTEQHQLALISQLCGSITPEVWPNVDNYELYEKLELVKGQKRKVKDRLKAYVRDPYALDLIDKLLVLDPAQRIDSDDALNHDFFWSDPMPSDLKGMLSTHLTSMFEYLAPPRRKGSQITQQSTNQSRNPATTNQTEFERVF
Chain of PI4KB (human) (Q9UBF8 whole entry, looked up): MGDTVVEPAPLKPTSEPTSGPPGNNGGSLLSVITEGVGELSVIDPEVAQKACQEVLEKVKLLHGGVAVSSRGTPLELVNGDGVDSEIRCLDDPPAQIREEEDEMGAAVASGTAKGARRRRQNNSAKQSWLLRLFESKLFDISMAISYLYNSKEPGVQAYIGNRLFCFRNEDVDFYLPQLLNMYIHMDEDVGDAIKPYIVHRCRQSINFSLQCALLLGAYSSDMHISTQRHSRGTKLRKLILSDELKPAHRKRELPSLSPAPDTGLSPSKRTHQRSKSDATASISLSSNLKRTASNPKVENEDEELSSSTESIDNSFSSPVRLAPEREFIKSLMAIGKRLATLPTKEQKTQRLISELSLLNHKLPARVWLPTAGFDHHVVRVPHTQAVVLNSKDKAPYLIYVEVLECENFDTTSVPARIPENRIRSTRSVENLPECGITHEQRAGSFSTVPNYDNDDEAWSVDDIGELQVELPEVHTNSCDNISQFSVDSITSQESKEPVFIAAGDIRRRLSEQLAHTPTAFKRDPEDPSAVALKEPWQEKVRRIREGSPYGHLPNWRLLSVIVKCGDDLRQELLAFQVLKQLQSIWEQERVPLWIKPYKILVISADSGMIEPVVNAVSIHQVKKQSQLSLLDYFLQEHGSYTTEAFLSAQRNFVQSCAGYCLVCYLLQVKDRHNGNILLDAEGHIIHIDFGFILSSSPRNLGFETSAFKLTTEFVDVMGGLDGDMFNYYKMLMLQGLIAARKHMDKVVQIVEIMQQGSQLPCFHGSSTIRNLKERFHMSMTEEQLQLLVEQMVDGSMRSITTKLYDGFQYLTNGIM
Chain of MAPK11 (human) (Q15759 whole entry, looked up): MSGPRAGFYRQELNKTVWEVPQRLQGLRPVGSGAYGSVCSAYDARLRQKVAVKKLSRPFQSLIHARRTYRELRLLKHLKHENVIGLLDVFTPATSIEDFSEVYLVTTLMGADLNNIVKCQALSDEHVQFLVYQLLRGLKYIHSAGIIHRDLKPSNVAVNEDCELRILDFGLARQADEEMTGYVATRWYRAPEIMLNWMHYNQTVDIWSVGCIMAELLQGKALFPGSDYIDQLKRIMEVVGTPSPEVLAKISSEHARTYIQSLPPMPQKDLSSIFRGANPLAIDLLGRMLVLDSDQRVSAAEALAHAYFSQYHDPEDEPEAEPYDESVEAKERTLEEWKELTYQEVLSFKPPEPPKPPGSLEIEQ
Chain of STK32A (human) (Q8WU08 whole entry, looked up): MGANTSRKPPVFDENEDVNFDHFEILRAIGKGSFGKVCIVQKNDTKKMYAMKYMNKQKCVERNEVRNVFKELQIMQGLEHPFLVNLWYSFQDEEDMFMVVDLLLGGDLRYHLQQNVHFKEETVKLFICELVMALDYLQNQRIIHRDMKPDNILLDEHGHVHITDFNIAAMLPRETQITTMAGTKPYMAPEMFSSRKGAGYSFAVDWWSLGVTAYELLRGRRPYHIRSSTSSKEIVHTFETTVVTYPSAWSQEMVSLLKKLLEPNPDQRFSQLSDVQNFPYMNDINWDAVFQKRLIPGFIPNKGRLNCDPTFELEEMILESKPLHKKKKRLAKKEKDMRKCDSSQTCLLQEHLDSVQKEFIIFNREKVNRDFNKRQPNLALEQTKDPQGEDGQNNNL

For `Cc1cc([C@@H](C)Nc2ccccc2C(=O)O)c2nc(N3CCOCC3)cc(=O)n2c1`, the IC50 (PI4KB (human)) was over 10 µM, the IC50 (PIK3C3 (human)) was 3.39 µM and the IC50 (MTOR (human)) was 3.93 µM. The kinase still bound, per cent of control (PRKG2 (human)) was 100%, the kinase still bound, per cent of control (MAP3K5 (human)) was 100% and the kinase still bound, per cent of control [1] was 93%. It also gave a kinase still bound, per cent of control (STK35 (human)) of 96%, a kinase still bound, per cent of control (CDK11B (human)) of 100% and a kinase still bound, per cent of control (STK32A (human)) of 100%. For the same molecule, the kinase still bound, per cent of control (CDKL2 (human)) was 100%, the kinase still bound, per cent of control (HIPK3 (human)) was 68% and the kinase still bound, per cent of control (MAPK9 (human)) was 69%. It also gave a kinase still bound, per cent of control (CDK9 (human)) of 89%, a kinase still bound, per cent of control (RPS6KB1 (human)) of 100% and a kinase still bound, per cent of control (MET (human)) of 95%. It also gave a kinase still bound, per cent of control (PLK3 (human)) of 94%, a kinase still bound, per cent of control (CDC42BPA (human)) of 100% and a kinase still bound, per cent of control (MAPK1 (human)) of 100%. The kinase still bound, per cent of control (CAMK2D (human)) was 100%, the kinase still bound, per cent of control (DYRK1B (human)) was 100% and the kinase still bound, per cent of control (IRAK1 (human)) was 100%. For the same molecule, the kinase still bound, per cent of control (RPS6KA4 KD1 (human)) was 93%, the kinase still bound, per cent of control (MAP3K13 (human)) was 100% and the kinase still bound, per cent of control (STK33 (human)) was 100%. The kinase still bound, per cent of control (MAP3K1 (human)) was 100%, the kinase still bound, per cent of control (MAPK3 (human)) was 94% and the kinase still bound, per cent of control [2] was 100%. It also gave a kinase still bound, per cent of control [3] of 100%, a kinase still bound, per cent of control (PAK2 (human)) of 100% and a kinase still bound, per cent of control (AURKC (human)) of 91%. The kinase still bound, per cent of control (PHKG2 (human)) was 67%, the kinase still bound, per cent of control (VRK2 (human)) was 83% and the kinase still bound, per cent of control (CSNK1G3 (human)) was 95%. It also gave a kinase still bound, per cent of control (PLK1 (human)) of 55%, a kinase still bound, per cent of control (GAK (human)) of 83% and a kinase still bound, per cent of control (RPS6KA5 KD1 (human)) of 100%. The kinase still bound, per cent of control [4] was 78%, the kinase still bound, per cent of control (MAPK11 (human)) was 100% and the kinase still bound, per cent of control (RPS6KA5 KD2 (human)) was 100%. It also gave a kinase still bound, per cent of control (BLK (human)) of 100%, a kinase still bound, per cent of control (PRKCQ (human)) of 100% and a kinase still bound, per cent of control [5] of 100%.
